Measurements from ChEMBL document CHEMBL1138448, “Synthesis, biological evaluation, and molecular docking of Ugi products containing a zinc-chelating moiety as novel inhibitors of histone deacetylases” (J Med Chem, 2009).
Activity calls are given as the source filed them. The calls are words filed in the database; no cut-off is given here.

Experiments:
SH-SY5Y [1] = assay: Cytotoxicity against human SH-SY5Y cells assessed as cell viability at 10 uM after 48 hrs by MTT assay relative to control; type: functional; conditions: for viability at 10 µM: Homo sapiens, SH-SY5Y, 48 h, read-out: Activity
SH-SY5Y [2] = assay: Cytotoxicity against human SH-SY5Y cells assessed as cell viability after 48 hrs by MTT assay; type: functional, cell-based
SH-SY5Y [3] = assay: Cell cycle arrest in human SH-SY5Y cells assessed as accumulation at G2/M phase at 3 uM after 16 hrs by flow cytometry; type: functional
Histone deacetylase = assay: Inhibition of HDAC in human SHSY5Y cells by fluorimetric cellular activity assay; type: cell-based; conditions: sh-sy5y
[4] = target: Histone deacetylase (Homo sapiens) (UniProt Q13547+O15379+Q9UBN7+Q92769+Q9UQL6+Q8WUI4+Q9BY41+Q96DB2+P56524+Q9UKV0+Q969S8); conditions: SH-SY5Y, at 10 µM
Description: Inhibition of HDAC in human SHSY5Y cells at 10 uM by fluorimetric cellular activity assay

SMILES	viability at 10 µM (SH-SY5Y [1]) [%]	IC50 (SH-SY5Y [2]) [µM]	other results
O=C(CCCCCC(=O)N(CCc1ccccc1)C(Cc1ccccc1)C(=O)NCc1ccccc1)NO (stereo not given)	34.9	7.5	
Nc1ccccc1NC(=O)CCCCCC(=O)N(Cc1ccccc1)C(Cc1ccccc1)C(=O)NC1CCCCC1 (stereo not given)	91.6		
O=C(CCCCCC(=O)N(Cc1ccccc1)C(Cc1ccccc1)C(=O)NCCc1ccccc1)NO (stereo not given)	30.8	7.6	
O=C(CCCCCCC(=O)Nc1ccccc1)NO [VORINOSTAT]			Activity (SH-SY5Y [1]): 33.8%; Activity (SH-SY5Y [3]): 34%
CN(C(=O)CCCCCCC(=O)NO)C(Cc1ccccc1)C(=O)NCCc1ccccc1 (stereo not given)	94.4		
CCCCCCCC(C(=O)NCCc1ccccc1)N(Cc1ccccc1)C(=O)CCCCCCC(=O)NO (stereo not given)	53		
O=C(CCCCCCC(=O)N(Cc1ccccc1)C(Cc1ccc(-c2ccccc2)cc1)C(=O)NCCc1ccccc1)NO (stereo not given)	22.2	4.2	Activity (SH-SY5Y [3]): 11.3%; IC50 (Histone deacetylase): 4.4 µM; inhibition [4]: Active
CCCCCCC(C(=O)NC1CCCCC1)N(CCc1ccccc1)C(=O)CCCCCC(=O)NO (stereo not given)	35	2.9	
O=C(CCCCCCC(=O)N(Cc1ccccc1)C(Cc1ccccc1)C(=O)NCCc1ccccc1)NO (stereo not given)	53.1		
O=C(CCCCCC(=O)N(CCc1ccccc1)C(Cc1ccccc1)C(=O)NCCc1ccccc1)NO (stereo not given)	30.2	2.9	
Nc1ccccc1NC(=O)CCCCCCC(=O)N(Cc1ccccc1)C(Cc1ccc(-c2ccccc2)cc1)C(=O)NCCc1ccccc1 (stereo not given)	74		
O=C(CCCCCC(=O)N(Cc1ccccc1)C(Cc1ccccc1)C(=O)NC1CCCCC1)NO (stereo not given)	27.4	2.5	Activity (SH-SY5Y [3]): 34.3%; IC50 (Histone deacetylase): 1.2 µM; inhibition [4]: Active
